Data set [1] concerns rats. In words: Anti-depressant activity: antagonism of symptoms induced by 2-ethyl-2-hydroxy-3-isobutyl-9,10-dimethoxy-1,3,4,6,7,11b-hexahydro-2H-benzo (a) quinolizine hydrochloride (motility, sensitivity to stimulus, seeking behavior, suppression of ptosis). It counts as in vivo. As to conditions: 3 doses of 50 mg/kg p.o., benzoquinolizine 20 mg/kg s.c. 6 h after last dose, amitriptyline = 100 percent. On the procedure: The compounds of formula I above and their pharmaceutically acceptable salts are extremely effective and active as anti-depressant agents. Their useful anti-depressant activity is shown in warm-blooded animals utilizing standard test procedures. […] Six hours after the last administration the animals received 20 mg/kg of 2-ethyl-2-hydroxy-3-isobutyl-9,10-dimethoxy-1,3,4,6,7,11b-hexahydro-2H-benzo (a) quinolizine hydrochloride injected subcutaneously. The same dosage was administered to a group of 5-non-pretreated rats. The evaluation includes central and peripheral symptoms such as are characteristic for anti-depressants (See Annals of the New York Academy of Science, Vol. 96, page 279, 1962). Especially observed were the motility (climbing), sensitivity to stimulus, seeking behavior as well as the suppression of ptosis. These changes were expressed in numbers according to an evaluation scheme.
The percentage numbers stated relate to the value obtained with amitriptyline (amitriptyline = 100 percent).

The nature of data set [2]: Acute toxicity (LD50), 24 hour values. To be noted: mouse, in vivo, mice, 24 hour value. On the procedure:
The low toxicity of the compounds of formula I is also illustrated by the acute toxicity (LD50) of the compounds set out in Table I. The figures set forth in Table I as to acute toxicity refer to toxicity tests performed in mice and are the 24 hour values.

Read-outs that look alike come from different tables or passages of the source.

The term LD50 denotes the dose at which mortality reaches 50%. Turning to `CN1Cc2cc(O)ccc2C(c2ccc(Cl)c(Cl)c2)C1` (stereo not drawn) [4-(3,4-dichlorophenyl)-1,2,3,4-tetrahydro-2-methyl-7-isoquinolinol], the “Activity in % of the activity of amitriptyline” value in data set [1] was “about 158%”. The LD50 at 24 h in data set [2] (iv, i.v., read-out: LD50 i.v.) lay within 30 to 60 mg/kg; in data set [2] (po, p.o., read-out: LD50 p.o.) it was 500 to 1000 mg/kg; in data set [2] (sc, s.c., read-out: LD50 s.c.) it was 250 to 500 mg/kg.
In the same order, the values of `COc1ccc2c(c1)CN(C)CC2c1ccc(Cl)c(Cl)c1` (stereo not drawn) [4-(3,4-dichlorophenyl)-1,2,3,4-tetrahydro-7-methoxy-2-methylisoquinoline] are “about 128%”, 125 to 250 mg/kg, 1000 to 2000 mg/kg and 500 to 1000 mg/kg.
In the same order, the values of `CN1Cc2cc(O)ccc2C(c2ccc(Cl)cc2)C1` (stereo not drawn) [4-(4-chlorophenyl)-1,2,3,4-tetrahydro-2-methyl-7-isoquinolinol] are “about 114%”, 30 to 60 mg/kg, 1000 to 2000 mg/kg and 500 to 1000 mg/kg.

These data come from patent publication US3947456A, “Substituted 4-phenyl isoquinolines” (Hoffman-La Roche Inc., priority 1970, dated 1976).
